Experimental data published in patent US20130123206A1, “TREATMENT OF METABOLIC SYNDROME AND INSULIN RESISTANCE WITH CITRUS FLAVANONES” (priority 2010, published 2013).
“Also recorded” adds a separate entry of the source.

What was measured:
[1] = tested on: bovine aortic endothelial cells (BAEC); test: Evaluation of NO production in fixed cells (DAF-2 DA fluorescence); type: cell-based; details: for NO production in response to hesperetin after inhibitor pre-treatment: 10 min; for NO production in response to hesperetin after inhibitor pre-treatment / NO production in response to insulin after inhibitor pre-treatment: inhibitor added 30 min before DAF-2 DA loading; for NO production in response to insulin after inhibitor pre-treatment: insulin 100 nM, 5 min
Protocol: Bovine aortic endothelial cells (BAEC) in primary culture (Cell Applications, San Diego, Calif.) were grown in EBM (Endothelial Basal Medium) containing EGM-MV supplements (Endothelial Growth Medium-Micro Vascular; Cambrex, Walkersville, Md.) and used between passages 3 and 5 as previously described (Formoso et al., Mol Endocrinol, 20:1153-63, 2006). […] Biol. Chem. 282:13736-45, 2007; Formoso et al., Mol. Endocrinol. 20:1153-63, 2006). Briefly, BAECs were grown to 95% confluence in Lab-Tek™ chamber slides (Rochester, N.Y.) and then serum-starved overnight in phenol red-free EBM supplemented with L-arginine (100 μM). BAECs were loaded with DAF-2 DA (3 μM) for 20 minutes at 37° C. […] After loading with DAF-2 DA for 20 minutes, cells were washed with EBM at 37° C. and kept in the dark. Next, BAECs were treated with insulin (100 nM, 5 minutes), lysophosphatidic acid (LPA; 5 μM, 5 minutes), or hesperetin (10 μM, 10 minutes; Sigma). After treatment, cells were fixed in 4% paraformaldehyde (vol/vol) for 5 minutes at 4° C. Fixed cells were visualized using an Olympus IX81 inverted microscope with attached CCD camera (Retiga Exi, Burnaby, BC, Canada) using appropriate filters with a peak excitation wavelength of 480 nm and a peak emission wavelength of 510 nm. Images were captured using IPLab™ Software (Scanalytics, Inc., Fairfax, Va.).

[2] = tested on: bovine aortic endothelial cells (BAEC); test: Immunoblotting of phospho-AMPK, phospho-Akt, phospho-eNOS and phospho-Src in BAEC; type: cell-based
Protocol: Bovine aortic endothelial cells (BAEC) in primary culture (Cell Applications, San Diego, Calif.) were grown in EBM (Endothelial Basal Medium) containing EGM-MV supplements (Endothelial Growth Medium-Micro Vascular; Cambrex, Walkersville, Md.) and used between passages 3 and 5 as previously described (Formoso et al., Mol Endocrinol, 20:1153-63, 2006). BAECs were grown in 60 mm dishes, serum-starved overnight, and then treated with hesperetin (10 μM) for varying durations or for 10 minutes at different concentrations. In some experiments, Wortmannin (100 nM), or Compound C (5 μM) was added to cells 1 hour before treating with hesperetin. Cell lysates were prepared using 120 μl of lysis buffer (100 mM NaCl, 20 mM Hepes, pH 7.9, 1% Triton X-100, 1 mM Na3VO4, 4 mM sodium pyrophosphate, 10 mM EDTA, 1 mM phenylmethylsulfonyl fluoride, 10 mM NaF, and complete protease inhibitor cocktail (Roche Applied Sciences, Indianapolis, Ind.)). After centrifugation of samples at 17,000×g for 5 minutes at 4° C., supernatants were boiled with Laemmli sample buffer for 5 minutes and proteins (50 μg total protein) were resolved by 10% SDS-PAGE, transferred to nitrocellulose membranes, and immunoblotted using antibodies against eNOS (Transduction Laboratories), phospho-eNOS ([…]), Akt, phospho-Akt ([…]), AMPK, phospho-AMPK ([…]), Src ([…]) (Cell Signaling Technology), VCAM-1 (Santa Cruz, Calif.) or β-actin (Sigma) according to standard methods. Immunoblots were quantified by scanning densitometry (GE Healthcare).

[3] = tested on: bovine aortic endothelial cells (BAEC); test: Measurement of H2O2/ROS production (CM-H2DCF-DA fluorescence); type: cell-based; details: for production of ROS in BAEC: 10 μM, 10 minutes
Protocol: Briefly, BAECs were plated on chamber slides and incubated overnight in media free of phenol red, serum, and growth factors. Cells were then washed with Dulbecco's phosphate buffered saline containing calcium and magnesium (DPBS) before each experiment. Cells were loaded with CM-H2DCF-DA (5 μM, 20 minutes, 37° C.) and then washed to remove excess CM-H2DCF-DA. Cells were then treated with H2O2, hesperetin, or naringenin as indicated in the legends to figures followed by washing three times with DPBS. Some groups of cells were pre-treated with N-acetylcysteine (NAC) (10 mM, 2 hours). Cells were then visualized and images were captured as described for measurement of NO production.

[4] = tested on: VCAM-1 expression in BAEC; test: TNF-α-stimulated VCAM-1 expression by immunoblotting; type: cell-based, bovine; details: 5 hours
Protocol: FIG. 5A is a digital image showing vascular cell adhesion molecule-1 (VCAM-1) expression by immunoblotting. BAECs were serum-starved overnight and then treated without or with TNF-α (10 ng/ml, 5 hours). In some groups, cells were pre-treated with hesperetin (10 μM, 1 hour) prior to treatment with TNF-α. Cell lysates were immunoblotted using antibodies against VCAM-1 or β-actin. Representative immunoblots are shown for experiments that were repeated independently four times. BAECs were grown in 60 mm dishes, serum-starved overnight, and then treated with hesperetin (10 μM) for varying durations or for 10 minutes at different concentrations. In some experiments, Wortmannin (100 nM), or Compound C (5 μM) was added to cells 1 hour before treating with hesperetin. Cell lysates were prepared using 120 μl of lysis buffer (100 mM NaCl, 20 mM Hepes, pH 7.9, 1% Triton X-100, 1 mM Na3VO4, 4 mM sodium pyrophosphate, 10 mM EDTA, 1 mM phenylmethylsulfonyl fluoride, 10 mM NaF, and complete protease inhibitor cocktail (Roche Applied Sciences, Indianapolis, Ind.)). […] Immunoblots were quantified by scanning densitometry (GE Healthcare).

[5] = tested on: U937 monocytes adhering to BAECs; test: Monocyte adhesion assay; type: cell-based, bovine; details: 5 hours
Protocol: BAECs were cultured in 6-well plates and then treated with TNF-α (10 ng/ml, 5 hours) or hesperetin (10 μM, 5 hours). In some experiments, hesperetin was added 1 hour before treating cells with TNF-α. U937 monocytes were grown in DMEM medium containing 10% FBS in a culture flask. U937 monocytes were labeled for 15 min with 5 μM calcein-AM (Molecular Probes, Inc.). Labeled U937 cells (6×10^5 cells) were then incubated for 30 minutes at 37° C. with confluent BAECs pre-treated with hesperetin and/or TNF-α. Co-cultured cells were washed three times with PBS and then images of monocytes adhering to BAECs were obtained with an Olympus IX81 inverted microscope with attached CCD camera (Retiga Exi, Burnaby, BC, Canada) using appropriate filters. Images were captured using IPLab™ Software (Scanalytics, Inc., Fairfax, Va.).

[6] = BAEC serum-starved overnight, hesperetin 10 min at varying concentrations or 10 μM for varying durations
[7] = hesperetin 10 μM, 1 hour before TNF-α 10 ng/ml

c1cc(-c2cnn3cc(-c4ccc(OCCN5CCCCC5)cc4)cnc23)ccn1 [Compound C]
NO production in response to hesperetin after inhibitor pre-treatment ([1]; hesperetin 10 μM): substantially inhibited

COC(=O)[C@@H](N)CCCNC(=N)N[N+](=O)[O-] [L-NAME, L-N^G-Nitroarginine methyl ester]
NO production in response to hesperetin after inhibitor pre-treatment ([1]; hesperetin 10 μM): blocked
NO production in response to insulin after inhibitor pre-treatment [1]: blocked

CC(=O)N[C@@H](CS)C(=O)O [N-acetylcysteine, reference compound]
hesperetin and naringenin-stimulated phosphorylation of Src (Tyr418), Akt (Ser473), and eNOS (Ser1179) after NAC pre-treatment ([2]; NAC 10 mM, 2 hours, flavanone 10 μM, 10 min): inhibited
production of ROS after NAC pre-treatment ([3]; NAC 10 mM, 2 hours before loading): scavenged

CC(C)(C)n1nc(-c2ccc(Cl)cc2)c2c(N)ncnc21 [PP2]
hesperetin-stimulated phosphorylation of Src, Akt, and eNOS after PP2 pre-treatment ([2]; PP2 1 μM, 1 hour, hesperetin 10 μM, 10 min): inhibited
NO production in response to hesperetin after inhibitor pre-treatment ([1]; hesperetin 10 μM): inhibited
NO production in response to insulin after inhibitor pre-treatment [1]: failed to inhibit

COc1ccc([C@@H]2CC(=O)c3c(O)cc(O)cc3O2)cc1O [hesperetin]
cellular levels of phosphorylated AMPK (Thr172) [2, 6]: Significant concentration-dependent effects; also recorded: acutely increased; also recorded: Significant time-dependent effects
cellular levels of phosphorylated Akt (Ser473) [2, 6]: Significant concentration-dependent effects; also recorded: acutely increased; also recorded: Significant time-dependent effects
phospho-eNOS (Ser1179) [2, 6]: Significant concentration-dependent effects; also recorded: increased; also recorded: Significant time-dependent effects
hesperetin-stimulated NO production in BAEC ([1]; DAF-2 DA, 10 min at varying concentrations or 10 μM for varying durations): concentration- and time-dependent increase
time of peak production of NO ([1]; hesperetin 10 μM, BAEC): 5 to 10 min
production of ROS in BAEC [3]: stimulated
TNF-α-stimulated expression of VCAM-1 after hesperetin pre-treatment [4, 7]: substantially reduced
TNF-α-stimulated adhesion of monocytes to endothelial cells after hesperetin pre-treatment [5, 7]: substantially reduced

O=C1C[C@@H](c2ccc(O)cc2)Oc2cc(O)cc(O)c21 [naringenin]
production of ROS in BAEC [3]: stimulated

TNF-α
expression of VCAM-1 vs vehicle-treated control cells ([4]; TNF-α 10 ng/ml): increased
adhesion of labeled monocytes vs vehicle-treated control cells ([5]; TNF-α 10 ng/ml): corresponding increase
